Test results published in publication PMC3004257, “Purine nucleoside phosphorylase from Schistosoma mansoni in complex with ribose-1-phosphate” (Journal of Synchrotron Radiation, 2010).

Columns and labels:
[1] = target: T1, SmPNP (Schistosoma mansoni purine nucleoside phosphorylase) (Schistosoma mansoni, UniProt Q9BMI9); experiment: X-ray crystallography, crystal soaking; details: soaking aimed at ternary complex with R1P; base binding site
T1 construct: low-molecular-mass homotrimer
T1 sequence (Q9BMI9 1-287): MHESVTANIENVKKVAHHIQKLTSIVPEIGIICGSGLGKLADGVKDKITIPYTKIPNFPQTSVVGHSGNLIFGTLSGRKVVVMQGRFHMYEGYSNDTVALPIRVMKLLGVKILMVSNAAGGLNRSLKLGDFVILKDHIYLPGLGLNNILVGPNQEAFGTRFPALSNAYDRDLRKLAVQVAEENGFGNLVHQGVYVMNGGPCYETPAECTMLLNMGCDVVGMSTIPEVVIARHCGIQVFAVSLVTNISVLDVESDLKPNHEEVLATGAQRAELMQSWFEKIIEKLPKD

[2] = target: T1, SmPNP (Schistosoma mansoni purine nucleoside phosphorylase); experiment: X-ray crystallography, crystal soaking, […] Å; format: binding; details: 5 mM R1P soak up to 48 h, 20% PEG 1500, 15 mM sodium acetate pH 4.9 or 5.0, 20% glycerol; phosphate and ribose sites of all three subunits; acetate in base site

SMILES	X-ray crystallography, crystal soaking [1]	X-ray crystallography, crystal soaking, 2.0 Å [2]
O=c1[nH]cnc2nc[nH]c12 [hypoxanthine]	by soaking were unsuccessful, SmPNP–hypoxanthine complexes being obtained instead	–
O=P(O)(O)O[C@H]1O[C@H](CO)[C@@H](O)[C@H]1O [ribose-1-phosphate]	–	we have been able to obtain the elusive binary complex of SmPNP with R1P
